How the values were obtained:
KRAS G12C = KRAS G12C (Homo sapiens, UniProt P01116, G12C); experiment: GDP-GTP exchange assay (KRAS_G12C exchange); type: biochemical; settings: bodipy-GDP loaded KRAS G12C 2.5 nM, SOS1 150 nM, GppNHp; 2 hours pre-incubation, 2 hours reaction; read-out: G12C_exchange
How it was run: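 Fluorescence exchange of bodipy-GDP for GppNHp, SOS1-driven, read at 485/520 nm; IC50 from four-parameter variable-slope fit. Both mutants used 2.5 nM final labelled protein and a 2 h compound pre-incubation. G12C reaction had 500 uM GppNHp and 150 nM SOS1 for 2 h; G12D ran 4 h.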

[1] = tested on: MIA PaCa-2 (KRAS G12C) cells; experiment: Cellular pERK HTRF assay (KRAS_G12C pERK); type: cell-based, human; settings: Homo sapiens, MIA PaCa-2, 4 hours incubation, read-out: G12C_pERK
How it was run: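 MIA PaCa-2 cells plated overnight, then exposed to compound for 4 h at 37 °C (G12C compounds). Phospho-ERK1/2 measured in lysates by HTRF (665/620 nm) after overnight antibody incubation; IC50 from percent inhibition versus log concentration.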

KRAS G12C, sequence (P01116 1-188 isoform P01116-2 G12C): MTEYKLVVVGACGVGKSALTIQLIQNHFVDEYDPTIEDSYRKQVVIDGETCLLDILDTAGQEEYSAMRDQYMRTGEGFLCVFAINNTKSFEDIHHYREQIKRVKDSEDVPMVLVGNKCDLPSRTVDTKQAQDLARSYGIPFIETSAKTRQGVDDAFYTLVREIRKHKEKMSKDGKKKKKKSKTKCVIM

IC50 (KRAS G12C) | IC50 [1] | SMILES
≤ 100 nM | ≤ 100 nM | COC/C=C/C(=O)N1CC[C@H](n2nnc3c(N4CC(C)(N(C)C)C4)nc4c(F)c(-c5c(C)c(F)cc6[nH]ncc56)c(C)cc4c32)C[C@H]1CC#N [Example 203a, 2-((2S,4S)-4-(4-(3-(dimethylamino)-3-methylazetidin-1-yl)-6-fluoro-7-(6-fluoro-5-methyl-1H-indazol-4-yl)-8-methyl-1H-[1,2,3]triazolo[4,5-c]quinolin-1-yl)-1-((E)-4-methoxybut-2-enoyl)piperidin-2-yl)acetonitrile]
≤ 100 nM | ≤ 100 nM | CC#CC(=O)N1CC[C@H](n2nnc3c(OC[C@@H]4CCCN4C)nc4c(F)c(-c5cccc(Cl)c5OC)c(CCC#N)cc4c32)C[C@H]1CC#N [Example 204, 3-(1-((2S,4S)-1-(but-2-ynoyl)-2-(cyanomethyl)piperidin-4-yl)-7-(3-chloro-2-methoxyphenyl)-6-fluoro-4-(((S)-1-methylpyrrolidin-2-yl)methoxy)-1H-[1,2,3]triazolo[4,5-c]quinolin-8-yl)propanenitrile]
≤ 100 nM | ≤ 100 nM | Cc1cccc(-c2c(C)cc3c(nc(N4CC(N(C)C)C4)c4nnn([C@H]5CCN(C(=O)/C=C/CF)[C@H](CC#N)C5)c43)c2F)c1C [Example 206, 2-((2S,4S)-4-(4-(3-(dimethylamino)azetidin-1-yl)-7-(2,3-dimethylphenyl)-6-fluoro-8-methyl-1H-[1,2,3]triazolo[4,5-c]quinolin-1-yl)-1-((E)-4-fluorobut-2-enoyl)piperidin-2-yl)acetonitrile]
≤ 100 nM | ≤ 100 nM | C=CC(=O)N1CC[C@H](n2nnc3c(N4CC(C)(N(C)C)C4)nc4c(F)c(-c5cccc(C)c5C)c(C)cc4c32)C[C@H]1CC#N [Example 208, 2-((2S,4S)-1-acryloyl-4-(4-(3-(dimethylamino)-3-methylazetidin-1-yl)-7-(2,3-dimethylphenyl)-6-fluoro-8-methyl-1H-[1,2,3]triazolo[4,5-c]quinolin-1-yl)piperidin-2-yl)acetonitrile]
≤ 100 nM | ≤ 100 nM | Cc1cccc(-c2c(C)cc3c(nc(N4CC(C)(N(C)C)C4)c4nnn([C@H]5CCN(C(=O)/C=C/CF)[C@H](CC#N)C5)c43)c2F)c1C [Example 209, 2-((2S,4S)-4-(4-(3-(dimethylamino)-3-methylazetidin-1-yl)-7-(2,3-dimethylphenyl)-6-fluoro-8-methyl-1H-[1,2,3]triazolo[4,5-c]quinolin-1-yl)-1-((E)-4-fluorobut-2-enoyl)piperidin-2-yl)acetonitrile]
≤ 100 nM | ≤ 100 nM | C=CC(=O)N1CCC(n2nnc3c(N4CC(C)(N(C)C)C4)nc4c(F)c(-c5cccc6cccc(Cl)c56)c(C)cc4c32)C[C@H]1CC#N (stereo partly drawn) [Example 225, 2-((2S)-1-acryloyl-4-(7-(8-chloronaphthalen-1-yl)-4-(3-(dimethylamino)-3-methylazetidin-1-yl)-6-fluoro-8-methyl-1H-[1,2,3]triazolo[4,5-c]quinolin-1-yl)piperidin-2-yl)acetonitrile]
≤ 100 nM | ≤ 100 nM | C=CC(=O)N1CC[C@H](n2cnc3c(N4CC(N(C)C)C4)nc4c(F)c(-c5ccc(F)c6cccnc56)c(C(F)(F)F)cc4c32)C[C@H]1CC#N [Example 229, 2-((2S,4S)-1-acryloyl-4-(4-(3-(dimethylamino)azetidin-1-yl)-6-fluoro-7-(5-fluoroquinolin-8-yl)-8-(trifluoromethyl)-1H-imidazo[4,5-c]quinolin-1-yl)piperidin-2-yl)acetonitrile]

The remaining lines, values behind:

SMILES | IC50 (KRAS G12C) | IC50 [1]
C=CC(=O)N1CC[C@H](n2nnc3c(OC[C@@H]4CCCN4C)nc4c(F)c(-c5ccc(F)c(C)c5)c(C)cc4c32)C[C@H]1CC#N [Example 199, 2-((2S,4S)-1-acryloyl-4-(6-fluoro-7-(4-fluoro-3-methylphenyl)-8-methyl-4-(((S)-1-methylpyrrolidin-2-yl)methoxy)-1H-[1,2,3]triazolo[4,5-c]quinolin-1-yl)piperidin-2-yl)acetonitrile] | ≤ 100 nM | ≤ 100 nM
Cc1c(Cl)cc2[nH]ncc2c1-c1c(Cl)cc2c(nc(N3CC(N(C)C)C3)c3nnn([C@H]4CCN(C(=O)/C=C/C(F)F)[C@H](CC#N)C4)c32)c1F [Example 201a, 2-((2S,4S)-4-(8-chloro-7-(6-chloro-5-methyl-1H-indazol-4-yl)-4-(3-(dimethylamino)azetidin-1-yl)-6-fluoro-1H-[1,2,3]triazolo[4,5-c]quinolin-1-yl)-1-((E)-4,4-difluorobut-2-enoyl)piperidin-2-yl)acetonitrile] | ≤ 100 nM | ≤ 100 nM
C=CC(=O)N1CC[C@H](n2nnc3c(N4CC(C)(N(C)C)C4)nc4c(F)c(-c5c(C)c(F)cc6[nH]ncc56)c(C)cc4c32)C[C@H]1CC#N [Example 202a, 2-((2S,4S)-1-acryloyl-4-(4-(3-(dimethylamino)-3-methylazetidin-1-yl)-6-fluoro-7-(6-fluoro-5-methyl-1H-indazol-4-yl)-8-methyl-1H-[1,2,3]triazolo[4,5-c]quinolin-1-yl)piperidin-2-yl)acetonitrile] | ≤ 100 nM | ≤ 100 nM
CC#CC(=O)N1CC[C@H](n2nnc3c(N4CC(N(C)C)C4)nc4c(F)c(-c5cccc(C)c5C)c(C)cc4c32)C[C@H]1CC#N [Example 207, 2-((2S,4S)-1-(but-2-ynoyl)-4-(4-(3-(dimethylamino)azetidin-1-yl)-7-(2,3-dimethylphenyl)-6-fluoro-8-methyl-1H-[1,2,3]triazolo[4,5-c]quinolin-1-yl)piperidin-2-yl)acetonitrile] | ≤ 100 nM | ≤ 100 nM
C=CC(=O)N1CCC(n2nnc3c(OC[C@@H]4CCCN4C)nc4c(F)c(-c5cccc(C)c5)c(Cl)cc4c32)C[C@H]1CC#N (stereo partly drawn) [Example 210, 2-((2S)-1-acryloyl-4-(8-chloro-6-fluoro-4-(((S)-1-methylpyrrolidin-2-yl)methoxy)-7-(m-tolyl)-1H-[1,2,3]triazolo[4,5-c]quinolin-1-yl)piperidin-2-yl)acetonitrile] | ≤ 100 nM | ≤ 100 nM
C=CC(=O)N1CCC(n2nnc3c(N4CC(C)(N(C)C)C4)nc4c(F)c(-c5cccc(C)c5)c(Cl)cc4c32)C[C@H]1CC#N (stereo partly drawn) [Example 211, 2-((2S)-1-acryloyl-4-(8-chloro-4-(3-(dimethylamino)-3-methylazetidin-1-yl)-6-fluoro-7-(m-tolyl)-1H-[1,2,3]triazolo[4,5-c]quinolin-1-yl)piperidin-2-yl)acetonitrile] | ≤ 100 nM | ≤ 100 nM
CN(C)C/C=C/C(=O)N1CCC(n2nnc3c(N4CC(C)(N(C)C)C4)nc4c(F)c(-c5cccc6cccc(Cl)c56)c(Cl)cc4c32)C[C@H]1CC#N (stereo partly drawn) [Example 217, 2-((2S)-4-(8-chloro-7-(8-chloronaphthalen-1-yl)-4-(3-(dimethylamino)-3-methylazetidin-1-yl)-6-fluoro-1H-[1,2,3]triazolo[4,5-c]quinolin-1-yl)-1-((E)-4-(dimethylamino)but-2-enoyl)piperidin-2-yl)acetonitrile] | ≤ 100 nM | ≤ 100 nM
CC#CC(=O)N1CCC(n2cnc3c(N4CC(C)(N(C)C)C4)nc4c(F)c(-c5cccc6cccc(Cl)c56)c(C)cc4c32)C[C@H]1CC#N (stereo partly drawn) [Example 222, 2-((2S)-1-(but-2-ynoyl)-4-(7-(8-chloronaphthalen-1-yl)-4-(3-(dimethylamino)-3-methylazetidin-1-yl)-6-fluoro-8-methyl-1H-imidazo[4,5-c]quinolin-1-yl)piperidin-2-yl)acetonitrile] | ≤ 100 nM | ≤ 100 nM
CC#CC(=O)N1CC[C@H](n2nnc3c(N4CC(C)(N(C)C)C4)nc4c(F)c(-c5cccc(C)c5C)c(C)cc4c32)C[C@H]1CC#N [Example 226, 2-((2S,4S)-1-(but-2-ynoyl)-4-(4-(3-(dimethylamino)-3-methylazetidin-1-yl)-7-(2,3-dimethylphenyl)-6-fluoro-8-methyl-1H-[1,2,3]triazolo[4,5-c]quinolin-1-yl)piperidin-2-yl)acetonitrile] | ≤ 100 nM | ≤ 100 nM
Cc1c(Cl)cc2[nH]ncc2c1-c1c(CCC#N)cc2c(nc(N3CC(N(C)C)C3)c3nnn([C@H]4CCN(C(=O)/C=C/CN(C)C)[C@H](CC#N)C4)c32)c1F [Example 232, 3-(7-(6-chloro-5-methyl-1H-indazol-4-yl)-1-((2S,4S)-2-(cyanomethyl)-1-((E)-4-(dimethylamino)but-2-enoyl)piperidin-4-yl)-4-(3-(dimethylamino)azetidin-1-yl)-6-fluoro-1H-[1,2,3]triazolo[4,5-c]quinolin-8-yl)propanenitrile] | ≤ 100 nM | ≤ 100 nM
CC#CC(=O)N1CC[C@H](n2nnc3c(N4CC(C)(N(C)C)C4)nc4c(F)c(-c5ccc(F)c6cccnc56)c(C(F)(F)F)cc4c32)C[C@H]1CC#N [Example 234, 2-((2S,4S)-1-(but-2-ynoyl)-4-(4-(3-(dimethylamino)-3-methylazetidin-1-yl)-6-fluoro-7-(5-fluoroquinolin-8-yl)-8-(trifluoromethyl)-1H-[1,2,3]triazolo[4,5-c]quinolin-1-yl)piperidin-2-yl)acetonitrile] | ≤ 100 nM | ≤ 100 nM
CC#CC(=O)N1CC[C@H](n2nnc3c(N4CC(C)(N(C)C)C4)nc4c(F)c(-c5cccc(C)c5Cl)c(C(F)(F)F)cc4c32)C[C@H]1CC#N [Example 236, 2-((2S,4S)-1-(but-2-ynoyl)-4-(7-(2-chloro-3-methylphenyl)-4-(3-(dimethylamino)-3-methylazetidin-1-yl)-6-fluoro-8-(trifluoromethyl)-1H-[1,2,3]triazolo[4,5-c]quinolin-1-yl)piperidin-2-yl)acetonitrile] | ≤ 100 nM | ≤ 100 nM

From patent US20210269434A1, “TRICYCLIC COMPOUNDS AS INHIBITORS OF KRAS” (Incyte Corporation, priority 2020, published 2021)
